One test concerns the target T1, STAT6 protein (Homo sapiens, UniProt P42226).
T1 sequence (P42226 1-847): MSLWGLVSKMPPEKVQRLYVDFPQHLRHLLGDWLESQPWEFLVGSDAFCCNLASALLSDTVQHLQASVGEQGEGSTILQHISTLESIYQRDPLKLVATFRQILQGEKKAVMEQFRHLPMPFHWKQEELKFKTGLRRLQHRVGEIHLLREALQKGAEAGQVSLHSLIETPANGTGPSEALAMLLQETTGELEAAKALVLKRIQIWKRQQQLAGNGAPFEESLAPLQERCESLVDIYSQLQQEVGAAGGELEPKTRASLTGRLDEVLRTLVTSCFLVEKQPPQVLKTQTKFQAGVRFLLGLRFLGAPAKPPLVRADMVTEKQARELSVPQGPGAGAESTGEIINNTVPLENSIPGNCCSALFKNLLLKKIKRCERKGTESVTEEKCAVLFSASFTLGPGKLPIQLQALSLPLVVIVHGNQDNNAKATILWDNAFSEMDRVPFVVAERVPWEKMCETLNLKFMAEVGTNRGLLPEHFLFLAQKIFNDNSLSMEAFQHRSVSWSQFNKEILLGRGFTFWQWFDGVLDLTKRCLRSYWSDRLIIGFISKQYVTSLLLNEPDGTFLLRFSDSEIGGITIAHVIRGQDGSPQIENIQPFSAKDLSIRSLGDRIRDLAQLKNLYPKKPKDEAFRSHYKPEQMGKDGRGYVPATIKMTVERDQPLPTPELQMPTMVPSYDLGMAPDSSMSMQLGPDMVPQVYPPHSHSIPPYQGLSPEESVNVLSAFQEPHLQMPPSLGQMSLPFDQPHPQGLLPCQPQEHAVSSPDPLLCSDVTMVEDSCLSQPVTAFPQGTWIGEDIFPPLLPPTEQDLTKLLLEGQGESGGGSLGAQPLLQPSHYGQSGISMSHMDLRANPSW
Put plainly: Fluorescence polarization (FP) binding assay, STAT6. The following applies: FP competition, 5 nM fluorescein-labeled tracer, 200 nM protein, PBS pH7.4; read-out: Binding STAT6. The procedure, abridged:
(§1)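 Fluorescein-labelled tracer (5 nM) with 200 nM STAT5 and/or STAT6 protein in PBS pH 7.4, 0.01% BGG, 0.01% Tween-20, 2 mM DTT. Mixed 15 min, then equilibrated 1 h at room temperature; read by fluorescence polarization, constants from nonlinear curve fitting.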

The next test has as its target T2, STAT5A (Homo sapiens, UniProt P42229).
T2 sequence (P42229 1-794): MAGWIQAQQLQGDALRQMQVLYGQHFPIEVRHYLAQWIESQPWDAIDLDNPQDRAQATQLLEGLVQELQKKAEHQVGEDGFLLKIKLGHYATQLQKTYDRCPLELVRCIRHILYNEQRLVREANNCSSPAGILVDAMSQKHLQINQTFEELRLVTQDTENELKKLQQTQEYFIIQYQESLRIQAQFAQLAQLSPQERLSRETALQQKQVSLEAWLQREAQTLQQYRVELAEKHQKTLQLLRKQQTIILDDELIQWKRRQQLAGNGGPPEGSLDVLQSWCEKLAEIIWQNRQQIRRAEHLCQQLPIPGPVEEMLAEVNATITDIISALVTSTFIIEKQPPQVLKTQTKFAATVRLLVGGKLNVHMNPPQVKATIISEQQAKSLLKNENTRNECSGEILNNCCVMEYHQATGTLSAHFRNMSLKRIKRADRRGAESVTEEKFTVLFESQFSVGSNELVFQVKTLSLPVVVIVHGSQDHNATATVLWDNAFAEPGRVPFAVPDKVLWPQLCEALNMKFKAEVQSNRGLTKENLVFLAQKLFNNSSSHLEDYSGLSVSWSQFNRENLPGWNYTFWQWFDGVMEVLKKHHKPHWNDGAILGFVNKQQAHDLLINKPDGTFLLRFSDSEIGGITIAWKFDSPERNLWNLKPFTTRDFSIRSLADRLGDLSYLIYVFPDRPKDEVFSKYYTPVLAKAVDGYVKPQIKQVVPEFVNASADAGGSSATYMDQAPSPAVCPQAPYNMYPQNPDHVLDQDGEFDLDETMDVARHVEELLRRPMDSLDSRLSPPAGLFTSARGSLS
Put plainly: Fluorescence polarization (FP) binding assay, STAT5A. The note with it: FP competition, 5 nM fluorescein-labeled tracer, 200 nM protein, PBS pH7.4. An outline of the steps: as §1

Bounds are passed on as bounds.

As for `CC(C)(C)[C@H](NC(=O)c1cc2cc(C(F)(F)P(=O)(O)O)ccc2s1)C(=O)N1Cc2ccccc2C1C(=O)N1CCO[C@H](c2ccccc2)C1` (stereo partly drawn) [Compound 141, ((2-(((2S)-3,3-dimethyl-1-oxo-1-(1-((R)-2-phenylmorpholine-4-carbonyl)isoindolin-2-yl)butan-2-yl)carbamoyl)benzo[b]thiophen-5-yl)difluoromethyl)phosphonic acid], the Ki on STAT6 protein was 100 to 1000 nM; on STAT5A, 1000 to 10000 nM.
In the same order, the values of `CC(C)(C)[C@H](NC(=O)c1cc2cc(C(F)(F)P(=O)(O)O)ccc2s1)C(=O)N1Cc2ccccc2C1C(=O)N1CCO[C@@H](c2ccccc2)C1` (stereo partly drawn) [Compound 142, ((2-(((2S)-3,3-dimethyl-1-oxo-1-(1-((S)-2-phenylmorpholine-4-carbonyl)isoindolin-2-yl)butan-2-yl)carbamoyl)benzo[b]thiophen-5-yl)difluoromethyl)phosphonic acid] are 1000 to 10000 nM and greater than 10000 nM.
With `CCC(CC)[C@H](NC(=O)c1cc2cc(C(F)(F)P(=O)(O)O)ccc2s1)C(=O)N1CCC[C@H]1C(=O)N1CCO[C@H](c2ccccc2)C1` [Compound 144, ((2-(((S)-3-ethyl-1-oxo-1-((S)-2-((R)-2-phenylmorpholine-4-carbonyl)pyrrolidin-1-yl)pentan-2-yl)carbamoyl)benzo[b]thiophen-5-yl)difluoromethyl)phosphonic acid], the Ki lay in the range of 100 to 1000 nM on STAT6 protein and 1000 to 10000 nM at STAT5A.
In the case of `CC(C)(C)[C@H](NC(=O)c1ccc2cc(C(F)(F)P(=O)(O)O)ccc2c1)C(=O)N1CCC[C@H]1C(=O)N1CCO[C@H](c2ccccc2)C1` [Compound 145, ((6-(((S)-3,3-dimethyl-1-oxo-1-((S)-2-((R)-2-phenylmorpholine-4-carbonyl)pyrrolidin-1-yl)butan-2-yl)carbamoyl)naphthalen-2-yl)difluoromethyl)phosphonic acid], the Ki on STAT6 protein is 100 to 1000 nM; at STAT5A, greater than 10000 nM.
Regarding `CC[C@H](NC(=O)c1cc2cc(C(F)(F)P(=O)(O)O)ccc2s1)C(=O)N1CCC[C@H]1C(=O)N1CCO[C@H](c2ccccc2)C1` [Compound 146, (difluoro(2-(((S)-1-oxo-1-((S)-2-((R)-2-phenylmorpholine-4-carbonyl)pyrrolidin-1-yl)butan-2-yl)carbamoyl)benzo[b]thiophen-5-yl)methyl)phosphonic acid], the Ki at STAT6 protein fell in the range of 100 to 1000 nM; on STAT5A, 1000 to 10000 nM.
With `C#CC[C@H](NC(=O)c1cc2cc(C(F)(F)P(=O)(O)O)ccc2s1)C(=O)N1CCC[C@H]1C(=O)N1CCO[C@H](c2ccccc2)C1` [Compound 147, (difluoro(2-(((S)-1-oxo-1-((S)-2-((R)-2-phenylmorpholine-4-carbonyl)pyrrolidin-1-yl)pent-4-yn-2-yl)carbamoyl)benzo[b]thiophen-5-yl)methyl)phosphonic acid], the Ki at STAT6 protein is 100 to 1000 nM; at STAT5A, greater than 10000 nM.
For `O=C(N[C@H](C(=O)N1CCC[C@H]1C(=O)N1CCO[C@H](c2ccccc2)C1)C1CC1)c1cc2cc(C(F)(F)P(=O)(O)O)ccc2s1` [Compound 148, ((2-(((S)-1-cyclopropyl-2-oxo-2-((S)-2-((R)-2-phenylmorpholine-4-carbonyl)pyrrolidin-1-yl)ethyl)carbamoyl)benzo[b]thiophen-5-yl)difluoromethyl)phosphonic acid], in that order: 100 to 1000 nM and 1000 to 10000 nM.
Take `CC(C)(O)[C@H](NC(=O)c1cc2cc(C(F)(F)P(=O)(O)O)ccc2s1)C(=O)N1CCC[C@H]1C(=O)N1CCO[C@H](c2ccccc2)C1` [Compound 149, (difluoro(2-(((S)-3-hydroxy-3-methyl-1-oxo-1-((S)-2-((R)-2-phenylmorpholine-4-carbonyl)pyrrolidin-1-yl)butan-2-yl)carbamoyl)benzo[b]thiophen-5-yl)methyl)phosphonic acid]: the Ki was 100 to 1000 nM at STAT6 protein and greater than 10000 nM on STAT5A.
Turning to `CCC(CC)[C@H](NC(=O)c1cc2cc(C(F)(F)P(=O)(O)O)ccc2s1)C(=O)N1CCC[C@H]1C(=O)N1CCO[C@@H](c2ccccc2)C1` [Compound 150, ((2-(((S)-3-ethyl-1-oxo-1-((S)-2-((S)-2-phenylmorpholine-4-carbonyl)pyrrolidin-1-yl)pentan-2-yl)carbamoyl)benzo[b]thiophen-5-yl)difluoromethyl)phosphonic acid], the figures for the Ki on STAT6 protein and at STAT5A were 1000 to 10000 nM and greater than 10000 nM, respectively.
For `CC(C)(C)[C@H](NC(=O)c1ccc2cc(C(F)(F)P(=O)(O)O)ccc2c1)C(=O)N1CCC[C@H]1C(=O)N1CCO[C@@H](c2ccccc2)C1` [Compound 151, ((6-(((S)-3,3-dimethyl-1-oxo-1-((S)-2-((S)-2-phenylmorpholine-4-carbonyl)pyrrolidin-1-yl)butan-2-yl)carbamoyl)naphthalen-2-yl)difluoromethyl)phosphonic acid], the Ki on STAT6 protein is 1000 to 10000 nM; at STAT5A it was greater than 10000 nM.
In the same order, the values of `CCC[C@H](NC(=O)c1cc2cc(C(F)(F)P(=O)(O)O)ccc2s1)C(=O)N1CCC[C@H]1C(=O)N1CCO[C@@H](c2ccccc2)C1` [Compound 152, (difluoro(2-(((S)-1-oxo-1-((S)-2-((S)-2-phenylmorpholine-4-carbonyl)pyrrolidin-1-yl)pentan-2-yl)carbamoyl)benzo[b]thiophen-5-yl)methyl)phosphonic acid] are 1000 to 10000 nM and greater than 10000 nM.
`C#CC[C@H](NC(=O)c1cc2cc(C(F)(F)P(=O)(O)O)ccc2s1)C(=O)N1CCC[C@H]1C(=O)N1CCO[C@@H](c2ccccc2)C1` [Compound 153, (difluoro(2-(((S)-1-oxo-1-((S)-2-((S)-2-phenylmorpholine-4-carbonyl)pyrrolidin-1-yl)pent-4-yn-2-yl)carbamoyl)benzo[b]thiophen-5-yl)methyl)phosphonic acid]: the Ki on STAT6 protein was 1000 to 10000 nM; on STAT5A, greater than 10000 nM.
For the molecule `O=C(N[C@H](C(=O)N1CCC[C@H]1C(=O)N1CCO[C@@H](c2ccccc2)C1)C1CC1)c1cc2cc(C(F)(F)P(=O)(O)O)ccc2s1` [Compound 154, ((2-(((S)-1-cyclopropyl-2-oxo-2-((S)-2-((S)-2-phenylmorpholine-4-carbonyl)pyrrolidin-1-yl)ethyl)carbamoyl)benzo[b]thiophen-5-yl)difluoromethyl)phosphonic acid], the Ki on STAT6 protein was 1000 to 10000 nM; at STAT5A, greater than 10000 nM.
For the molecule `O=C(NC1(C(=O)N2CCC[C@H]2C(=O)N2CCO[C@@H](c3ccccc3)C2)CCC1)c1cc2cc(C(F)(F)P(=O)(O)O)ccc2s1` [Compound 155, (difluoro(2-((1-((S)-2-((S)-2-phenylmorpholine-4-carbonyl)pyrrolidine-1-carbonyl)cyclobutyl)carbamoyl)benzo [b]thiophen-5-yl)methyl)phosphonic acid], the Ki at STAT6 protein and at STAT5A was greater than 10000 nM in each case.
With `CC(C)(O)[C@H](NC(=O)c1cc2cc(C(F)(F)P(=O)(O)O)ccc2s1)C(=O)N1CCC[C@H]1C(=O)N1CCO[C@@H](c2ccccc2)C1` [Compound 156, (difluoro(2-(((S)-3-hydroxy-3-methyl-1-oxo-1-((S)-2-((S)-2-phenylmorpholine-4-carbonyl)pyrrolidin-1-yl)butan-2-yl)carbamoyl)benzo[b]thiophen-5-yl)methyl)phosphonic acid], the values for the Ki on STAT6 protein and at STAT5A were 1000 to 10000 nM and greater than 10000 nM, respectively.
